Measurements as given in PubChem BioAssay (NCI).
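How tested: cells in 96-well plates exposed to compound for 48 hours at five concentrations. GI50 marks 50% less growth. At the TGI there is no net growth.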

Key:
Assay in all cases: growth of human tumour cells (NCI), 48 h
DU-145 prostate = tested on: DU-145 prostate
UO-31 renal = tested on: UO-31 renal
MALME-3M melanoma = tested on: MALME-3M melanoma
SK-OV-3 ovarian = tested on: SK-OV-3 ovarian
HS 578T breast = tested on: HS 578T breast
MCF7 breast = tested on: MCF7 breast
KM12 colon = tested on: KM12 colon
SF-295 CNS = tested on: SF-295 CNS
NCI-H23 lung = tested on: NCI-H23 lung
NCI-H460 lung = tested on: NCI-H460 lung
ACHN renal = tested on: ACHN renal
NCI-H522 lung = tested on: NCI-H522 lung
A549 NSCLC = tested on: A549 NSCLC
SNB-19 CNS = tested on: SNB-19 CNS
MDA-MB-231 breast = tested on: MDA-MB-231 breast
BT-549 breast = tested on: BT-549 breast
UACC-257 melanoma = tested on: UACC-257 melanoma
MDA-N = tested on: MDA-N
HOP-62 NSCLC = tested on: HOP-62 NSCLC
EKVX NSCLC = tested on: EKVX NSCLC
HCT-116 colon = tested on: HCT-116 colon
HCT-15 colon = tested on: HCT-15 colon
CAKI-1 renal = tested on: CAKI-1 renal
COLO 205 colon = tested on: COLO 205 colon
RXF 393 renal = tested on: RXF 393 renal
HCC-2998 colon = tested on: HCC-2998 colon
SF-539 CNS = tested on: SF-539 CNS
786-0 renal = tested on: 786-0 renal
SK-MEL-5 melanoma = tested on: SK-MEL-5 melanoma
SF-268 CNS = tested on: SF-268 CNS
OVCAR-3 ovarian = tested on: OVCAR-3 ovarian
NCI/ADR-RES ovarian = tested on: NCI/ADR-RES ovarian
M14 melanoma = tested on: M14 melanoma
PC-3 prostate = tested on: PC-3 prostate
OVCAR-5 ovarian = tested on: OVCAR-5 ovarian
UACC-62 melanoma = tested on: UACC-62 melanoma
LOX IMVI melanoma = tested on: LOX IMVI melanoma
NCI-H226 lung = tested on: NCI-H226 lung
IGROV1 ovarian = tested on: IGROV1 ovarian
TK-10 renal = tested on: TK-10 renal
MOLT-4 leukemia = tested on: MOLT-4 leukemia
U251 CNS = tested on: U251 CNS
SNB-75 CNS = tested on: SNB-75 CNS
HOP-92 NSCLC = tested on: HOP-92 NSCLC
SK-MEL-2 melanoma = tested on: SK-MEL-2 melanoma
HL-60(TB) leukemia = tested on: HL-60(TB) leukemia
SN12C renal = tested on: SN12C renal
OVCAR-4 ovarian = tested on: OVCAR-4 ovarian
HT29 colon = tested on: HT29 colon
CCRF-CEM leukemia = tested on: CCRF-CEM leukemia
SW-620 colon = tested on: SW-620 colon
A498 renal = tested on: A498 renal
K-562 leukemia = tested on: K-562 leukemia
OVCAR-8 ovarian = tested on: OVCAR-8 ovarian
MDA-MB-435 = tested on: MDA-MB-435
RPMI-8226 leukemia = tested on: RPMI-8226 leukemia
SK-MEL-28 melanoma = tested on: SK-MEL-28 melanoma
T-47D breast = tested on: T-47D breast
SR leukemia = tested on: SR leukemia

## NC(N)=NC(P(=O)(O)O)P(=O)(O)O
DU-145 prostate
  TGI: > 100 µM
UO-31 renal
  TGI: > 100 µM
MALME-3M melanoma
  TGI: > 100 µM
SK-OV-3 ovarian
  TGI: > 100 µM
HS 578T breast
  TGI: > 100 µM
MCF7 breast
  TGI: > 100 µM
KM12 colon
  TGI: > 100 µM
SF-295 CNS
  TGI: > 100 µM
NCI-H23 lung
  TGI: > 100 µM
NCI-H460 lung
  TGI: > 100 µM
ACHN renal
  TGI: > 100 µM
NCI-H522 lung
  TGI: > 100 µM
A549 NSCLC
  TGI: > 100 µM
SNB-19 CNS
  TGI: > 100 µM
MDA-MB-231 breast
  TGI: > 100 µM
BT-549 breast
  TGI: > 100 µM
UACC-257 melanoma
  TGI: > 100 µM
MDA-N
  TGI: > 100 µM
HOP-62 NSCLC
  TGI: > 100 µM
EKVX NSCLC
  TGI: > 100 µM
HCT-116 colon
  TGI: > 100 µM
HCT-15 colon
  TGI: > 100 µM
CAKI-1 renal
  TGI: > 100 µM
COLO 205 colon
  TGI: > 100 µM
RXF 393 renal
  TGI: > 100 µM
HCC-2998 colon
  TGI: > 100 µM
SF-539 CNS
  TGI: > 100 µM
786-0 renal
  TGI: > 100 µM
SK-MEL-5 melanoma
  TGI: > 100 µM
SF-268 CNS
  TGI: > 100 µM
OVCAR-3 ovarian
  TGI: > 100 µM
NCI/ADR-RES ovarian
  TGI: > 100 µM
M14 melanoma
  TGI: > 100 µM
PC-3 prostate
  TGI: > 100 µM
OVCAR-5 ovarian
  TGI: > 100 µM
UACC-62 melanoma
  TGI: > 100 µM
LOX IMVI melanoma
  TGI: > 100 µM
NCI-H226 lung
  TGI: > 100 µM
IGROV1 ovarian
  TGI: > 100 µM
TK-10 renal
  TGI: > 100 µM

## CCCCCCCCCCCCCCCC(=O)OCC1CCCN2CCCCC12 (stereo unspecified)
DU-145 prostate
  TGI: > 100 µM
MOLT-4 leukemia
  TGI: > 100 µM
UO-31 renal
  TGI: > 100 µM
U251 CNS
  TGI: > 100 µM
MALME-3M melanoma
  TGI: > 100 µM
SNB-75 CNS
  TGI: > 100 µM
SK-OV-3 ovarian
  TGI: > 100 µM
HS 578T breast
  TGI: > 100 µM
HOP-92 NSCLC
  TGI: > 100 µM
MCF7 breast
  TGI: > 100 µM
SK-MEL-2 melanoma
  TGI: > 100 µM
KM12 colon
  TGI: > 100 µM
HL-60(TB) leukemia
  TGI: > 100 µM
SN12C renal
  TGI: > 100 µM
SF-295 CNS
  TGI: > 100 µM
NCI-H23 lung
  TGI: > 100 µM
NCI-H460 lung
  TGI: > 100 µM
ACHN renal
  TGI: > 100 µM
OVCAR-4 ovarian
  TGI: > 100 µM
A549 NSCLC
  TGI: > 100 µM
SNB-19 CNS
  TGI: > 100 µM
HT29 colon
  TGI: > 100 µM
MDA-MB-231 breast
  TGI: > 100 µM
BT-549 breast
  TGI: > 100 µM
UACC-257 melanoma
  TGI: > 100 µM
MDA-N
  TGI: > 100 µM
HOP-62 NSCLC
  TGI: > 100 µM
EKVX NSCLC
  TGI: > 100 µM
HCT-116 colon
  TGI: > 100 µM
CCRF-CEM leukemia
  TGI: > 100 µM
HCT-15 colon
  TGI: > 100 µM
SW-620 colon
  TGI: > 100 µM
CAKI-1 renal
  TGI: > 100 µM
A498 renal
  TGI: > 100 µM
COLO 205 colon
  TGI: > 100 µM
RXF 393 renal
  TGI: > 100 µM
HCC-2998 colon
  TGI: > 100 µM
SF-539 CNS
  TGI: > 100 µM
786-0 renal
  TGI: > 100 µM
SK-MEL-5 melanoma
  TGI: > 100 µM
SF-268 CNS
  TGI: > 100 µM
K-562 leukemia
  TGI: > 100 µM
OVCAR-3 ovarian
  TGI: > 100 µM
OVCAR-8 ovarian
  TGI: > 100 µM
NCI/ADR-RES ovarian
  TGI: > 100 µM
M14 melanoma
  TGI: > 100 µM
PC-3 prostate
  TGI: > 100 µM
OVCAR-5 ovarian
  TGI: > 100 µM
UACC-62 melanoma
  TGI: > 100 µM
LOX IMVI melanoma
  TGI: > 100 µM
MDA-MB-435
  TGI: > 100 µM
RPMI-8226 leukemia
  TGI: > 100 µM
NCI-H226 lung
  TGI: > 100 µM
SK-MEL-28 melanoma
  TGI: > 100 µM
TK-10 renal
  TGI: > 100 µM

## COc1cc2nccc(Oc3ccc(NC(=O)C4(C(=O)Nc5ccc(F)cc5)CC4)cc3)c2cc1Oc1ccc(N)cn1
DU-145 prostate
  GI50: 4.5 µM
  TGI: > 100 µM
MOLT-4 leukemia
  GI50: 3.12 µM
  TGI: > 100 µM
UO-31 renal
  GI50: 2.36 µM
  TGI: 9.32 µM
U251 CNS
  GI50: 2.82 µM
  TGI: 16.6 µM
MALME-3M melanoma
  GI50: 2.09 µM
  TGI: 8.52 µM
SNB-75 CNS
  GI50: 1.41 µM
  TGI: 4.21 µM
SK-OV-3 ovarian
  GI50: 3.52 µM
  TGI: > 100 µM
HS 578T breast
  GI50: 1.65 µM
  TGI: 7.39 µM
HOP-92 NSCLC
  GI50: 0.0492 µM
  TGI: 3.03 µM
MCF7 breast
  GI50: 2.28 µM
  TGI: > 100 µM
SK-MEL-2 melanoma
  GI50: 2.5 µM
  TGI: 6.52 µM
KM12 colon
  GI50: 0.0442 µM
  TGI: 3.1 µM
HL-60(TB) leukemia
  GI50: 2.26 µM
  TGI: 5.23 µM
SN12C renal
  GI50: 1.1 µM
  TGI: > 100 µM
SF-295 CNS
  GI50: 0.254 µM
  TGI: 4.28 µM
NCI-H23 lung
  GI50: 2.57 µM
  TGI: > 100 µM
NCI-H460 lung
  GI50: 3.26 µM
  TGI: 18.7 µM
ACHN renal
  GI50: 2.76 µM
  TGI: 10.2 µM
OVCAR-4 ovarian
  GI50: 3.73 µM
  TGI: > 100 µM
NCI-H522 lung
  GI50: 2.25 µM
  TGI: 12.7 µM
A549 NSCLC
  GI50: 2.38 µM
  TGI: 9.05 µM
SNB-19 CNS
  GI50: 4.49 µM
  TGI: > 100 µM
HT29 colon
  GI50: 1.92 µM
  TGI: 7.6 µM
MDA-MB-231 breast
  GI50: 2.44 µM
  TGI: 8.42 µM
BT-549 breast
  GI50: 3.8 µM
  TGI: > 100 µM
UACC-257 melanoma
  GI50: 2.74 µM
  TGI: 51.3 µM
HOP-62 NSCLC
  GI50: 2.83 µM
  TGI: 84.3 µM
EKVX NSCLC
  GI50: 3.21 µM
  TGI: > 100 µM
HCT-116 colon
  GI50: 3.33 µM
  TGI: > 100 µM
CCRF-CEM leukemia
  GI50: 3.95 µM
  TGI: > 100 µM
HCT-15 colon
  GI50: 3.04 µM
  TGI: > 100 µM
SW-620 colon
  GI50: 2.57 µM
  TGI: > 100 µM
CAKI-1 renal
  GI50: 1.85 µM
  TGI: 5.48 µM
A498 renal
  GI50: 1.6 µM
  TGI: 4.33 µM
COLO 205 colon
  GI50: 2.13 µM
  TGI: 5.64 µM
RXF 393 renal
  GI50: 1.72 µM
  TGI: 4.72 µM
HCC-2998 colon
  GI50: 2.58 µM
  TGI: 7.49 µM
SF-539 CNS
  GI50: 0.854 µM
  TGI: 4.84 µM
786-0 renal
  GI50: 3.6 µM
  TGI: 94.7 µM
T-47D breast
  GI50: 1.91 µM
  TGI: 9.91 µM
SK-MEL-5 melanoma
  GI50: 2.03 µM
  TGI: 4.43 µM
SF-268 CNS
  GI50: 3.11 µM
  TGI: > 100 µM
K-562 leukemia
  GI50: 0.9 µM
  TGI: > 100 µM
OVCAR-3 ovarian
  GI50: 3.68 µM
  TGI: > 100 µM
OVCAR-8 ovarian
  GI50: 3.77 µM
  TGI: > 100 µM
NCI/ADR-RES ovarian
  GI50: 3.83 µM
  TGI: > 100 µM
M14 melanoma
  GI50: 2.66 µM
  TGI: 34.8 µM
PC-3 prostate
  GI50: 3.12 µM
  TGI: > 100 µM
OVCAR-5 ovarian
  GI50: 2.49 µM
  TGI: 39 µM
UACC-62 melanoma
  GI50: 1.33 µM
  TGI: 7.03 µM
LOX IMVI melanoma
  GI50: 1.75 µM
  TGI: 3.49 µM
MDA-MB-435
  GI50: 1.83 µM
  TGI: 6.1 µM
SR leukemia
  GI50: 3.25 µM
  TGI: > 100 µM
RPMI-8226 leukemia
  GI50: 3.99 µM
  TGI: 78.6 µM
NCI-H226 lung
  GI50: 1.5 µM
  TGI: 9.07 µM
SK-MEL-28 melanoma
  GI50: 2.56 µM
  TGI: 32 µM
IGROV1 ovarian
  GI50: 1.36 µM
  TGI: 3.94 µM
TK-10 renal
  GI50: 3.65 µM
  TGI: > 100 µM
